Where two headings read alike, the source gives them in different places.
Tests used:
Spodoptera frugiperda = Spodoptera frugiperda - spray application; assay type: in vivo; conditions: for mortality at 20 g/ha: 20 g ai/ha
Description: (§1) To produce a suitable preparation of active compound, 1 part by weight of active compound is mixed with the stated amount of solvent and emulsifier, and the concentrate is diluted with emulsifier-containing water to the desired concentration. To produce a suitable preparation of a biological suspension the cells, viruses or spores are diluted with emulsifier-containing water to the desired concentration.
Cabbage (Brassica oleracea) leaf-discs are sprayed with a preparation of the active ingredient at the desired concentration. Once dry, the leaf discs are infested with larvae of the fall army worm (Spodoptera frugiperda).
After the specified period of time, mortality in % is determined. 100% means that all the caterpillars have been killed; 0% means that none of the caterpillars have been killed. The mortality values thus determined are recalculated using the Colby-formula.

[1] = system: Phaedon cochleariae larvae; test: whole plant or invertebrate
Myzus persicae [2] = test: whole plant or invertebrate; conditions: in Brassica rapa, foliar
[3] = system: Tetranychus urticae (OP-resistant); test: Tetranychus urticae - test (OP-resistant), French bean leaf discs; assay type: in vivo; conditions: for mortality at 0.16 g/ha: 0.16 g ai/ha; for mortality at 500 g/ha: 500 g ai/ha
Description: as §1, with “cells” for “cells, viruses”
Leaf discs of French beans (Phaseolus vulgaris) infected with all instars of the Two-spotted spider mite (Tetranychus urticae), are sprayed with a preparation of the active ingredient at the desired concentration.
After the specified period of time mortality in % is determined. 100% means that all spider mites have been killed; 0% means that none of the spider mites have been killed.

[4] = system: Phaedon cochleariae larvae
Myzus persicae [5] = system: Myzus persicae
[6] = Spodoptera frugiperda, 0.16 g ai/ha, read-out: Mortality in % after 6^d
[7] = read-out: Mortality in % after 6^d
[8] = read-out: Mortality in % after 2^d
[9] = Tetranychus urticae, foliar, 0.8 g ai/ha, read-out: Mortality in % after 2^d
[10] = read-out: Mortality in % after 1^d
[11] = Tetranychus urticae, foliar, read-out: Mortality in % after 2^d
[12] = Spodoptera frugiperda, read-out: Mortality in % after 2^d
[13] = Tetranychus urticae, foliar, 4 g ai/ha, read-out: Mortality in % after 2^d

Cc1c(COC(=O)[C@@H]2[C@H](/C=C(\Cl)C(F)(F)F)C2(C)C)cccc1-c1ccccc1 (racemic) [Bifenthrin]
mortality at 0.16 g/ha (Spodoptera frugiperda; [6]): 0%
mortality at 0.8 g/ha [1, 7]: 50%

CC1(C)[C@H](C(=O)O[C@H](C#N)c2cccc(Oc3ccccc3)c2)[C@@H]1/C=C(\Cl)C(F)(F)F (racemic) [Lambda-Cyhalothrin, lambda-Cyhalothrin]
mortality at 0.16 g/ha (Spodoptera frugiperda; [6]): 33%
mortality at 0.16 g/ha (Myzus persicae [2]; [7]): 0%
mortality at 0.8 g/ha [1, 8]: 67%

Cc1c(F)c(F)c(COC(=O)[C@@H]2[C@H](/C=C(\Cl)C(F)(F)F)C2(C)C)c(F)c1F (racemic) [Tefluthrin]
mortality at 0.8 g/ha [3, 9]: 0%
mortality at 20 g/ha [1, 7]: 50%

C/C(=N\C#N)N(C)Cc1ccc(Cl)nc1 [Acetamiprid]
mortality at 20 g/ha [1, 7]: 33%

CC1(C)[C@H](C(=O)O[C@H](C#N)c2cccc(Oc3ccccc3)c2)[C@@H]1/C=C\C(=O)OC(C(F)(F)F)C(F)(F)F [Acrinathrin]
mortality at 0.8 g/ha (Myzus persicae [2]; [10]): 80%

CC1(C)C(C=C(Cl)Cl)C1C(=O)OC(C#N)c1cccc(Oc2ccccc2)c1 (stereo not drawn) [Alpha-Cypermethrin, alpha-Cypermethrin]
mortality at 0.16 g/ha [3, 11]: 0%
mortality at 4 g/ha [1, 7]: 0%

C/C=C(\C)C(=O)O[C@H]1C[C@@H](OC(C)=O)[C@@]2(C(=O)OC)CO[C@H]3[C@@H](O)[C@@](C)([C@]45O[C@@]4(C)[C@H]4C[C@@H]5O[C@@H]5OC=C[C@@]54O)[C@H]4[C@]1(CO[C@]4(O)C(=O)OC)[C@@H]32 [Azadirachtin]
mortality at 100 g/ha ([3]; Tetranychus urticae, foliar, 100 g ai/ha, read-out: Mortality in % after 2^d): 0%
mortality at 100 g/ha (Myzus persicae [2]; [7]): 0%

CC1(C)C(C=C(Cl)Cl)C1C(=O)OC(C#N)c1ccc(F)c(Oc2ccccc2)c1 (stereo not drawn) [Beta-Cyfluthrin, beta-Cyfluthrin]
Mortality in % after 6^d (Spodoptera frugiperda; 0.8 g ai/ha): 83%
Mortality in % after 6^d ([4]; 0.8 g ai/ha): 50%

CC(C)N1C(=O)N(c2ccccc2)CS/C1=N\C(C)(C)C [Buprofezin]
mortality at 500 g/ha [3, 11]: 0%

CNC(=O)c1cc(Cl)cc(C)c1NC(=O)c1cc(Br)nn1-c1ncccc1Cl [Chloranthraniliprole, Chlorantraniliprole]
mortality at 4 g/ha (Myzus persicae [2]; [7]): 80%
mortality at 0.8 g/ha [1, 7]: 33%

CCOCn1c(-c2ccc(Cl)cc2)c(C#N)c(Br)c1C(F)(F)F [Chlorfenapyr]
mortality at 0.8 g/ha [3, 9]: 0%

CCOP(=S)(OCC)Oc1nc(Cl)c(Cl)cc1Cl [Chlorpyrifos]
mortality at 100 g/ha (Spodoptera frugiperda; [12]): 50%
mortality at 4 g/ha [3, 11]: 0%
mortality at 4 g/ha (Myzus persicae [2]; [10]): 70%

CN/C(=N\[N+](=O)[O-])NCc1cnc(Cl)s1 [Clothianidin]
mortality at 20 g/ha (Myzus persicae [2]; [10]): 0%
mortality at 20 g/ha [1, 7]: 83%

CC1(C)C(C=C(Cl)Cl)C1C(=O)OC(C#N)c1cccc(Oc2ccccc2)c1 (stereo not drawn) [Cypermethrin]
mortality at 0.8 g/ha (Spodoptera frugiperda; Spodoptera frugiperda, 0.8 g ai/ha, read-out: Mortality in % after 6^d): 67%

CC1(C)[C@H](C(=O)O[C@H](C#N)c2cccc(Oc3ccccc3)c2)[C@@H]1C=C(Br)Br [Deltamethrin]
mortality at 0.032 g/ha (Spodoptera frugiperda; Spodoptera frugiperda, 0.032 g ai/ha, read-out: Mortality in % after 6^d): 0%

O=C(NC(=O)c1c(F)cccc1F)Nc1ccc(Cl)cc1 [Diflubenzuron]
mortality at 100 g/ha (Spodoptera frugiperda; Spodoptera frugiperda, 100 g ai/ha, read-out: Mortality in % after 2^d): 67%
mortality at 4 g/ha [3, 13]: 0%

CN/C(=N/CC1CCOC1)N[N+](=O)[O-] (stereo not drawn) [Dinotefuran]
mortality at 20 g/ha (Myzus persicae [2]; [10]): 0%
mortality at 20 g/ha [1, 7]: 0%

N#Cc1nn(-c2c(Cl)cc(C(F)(F)F)cc2Cl)c(N)c1[S+]([O-])C(F)(F)F (stereo not drawn) [Fipronil]
mortality at 0.8 g/ha [3, 9]: 0%
mortality at 0.16 g/ha [1, 8]: 0%

O=S(=O)(CCC(F)=C(F)F)c1ncc(Cl)s1 [Fluensulfone]
Mortality in % after 2^d ([3]; 2000 g ai/ha): 0%

O=C(NC(=O)c1c(F)cccc1F)Nc1ccc(Oc2ccc(C(F)(F)F)cc2Cl)cc1F [Flufenoxuron]
mortality at 0.8 g/ha [3, 9]: 0%
mortality at 20 g/ha [1, 7]: 0%

O=C1C=C(N(Cc2ccc(Cl)nc2)CC(F)F)CO1 [Flupyradifurone]
Mortality in % after 2^d ([3]; 0.8 g ai/ha): 0%
Mortality in % after 1^d (Myzus persicae [5]; 20 g ai/ha): 70%
Mortality in % after 2^d ([4]; 500 g ai/ha): 50%

CC1(C)[C@H](C(=O)O[C@H](C#N)c2cccc(Oc3ccccc3)c2)[C@@H]1/C=C(\Cl)C(F)(F)F [Gamma-Cyhalothrin, gamma-Cyhalothrin]
Mortality in % after 2^d (Spodoptera frugiperda; 0.16 g ai/ha): 0%

O=[N+]([O-])NC1=NCCN1Cc1ccc(Cl)nc1 [Imidacloprid]
mortality at 0.8 g/ha [3, 9]: 0%
mortality at 0.8 g/ha (Myzus persicae [2]; [10]): 0%
mortality at 20 g/ha [1, 7]: 0%

COC(=O)N(C(=O)N1CO[C@@]2(C(=O)OC)Cc3cc(Cl)ccc3C2=N1)c1ccc(OC(F)(F)F)cc1 [Indoxacarb]
Mortality in % after 6^d (Spodoptera frugiperda; 0.8 g ai/ha): 50%

CCN(Cc1ccc(Cl)nc1)/C(=C/[N+](=O)[O-])NC [Nitenpyram]
mortality at 0.8 g/ha [3, 9]: 0%
mortality at 20 g/ha [1, 7]: 0%

CC1=NNC(=O)N(/N=C/c2cccnc2)C1 [Pymetrozine]
mortality at 4 g/ha (Myzus persicae [2]; [7]): 0%

CC(=O)N1C(=O)N(NCc2cccnc2)Cc2cc(C(F)(C(F)(F)F)C(F)(F)F)ccc21 [Pyrifluquinazone, Pyrifluquinazon]
Mortality in % after 2^d ([3]; 0.8 g ai/ha): 0%

CC(c1ccc(C(F)(F)F)nc1)S(C)(=O)=NC#N (stereo not drawn) [Sulfoxaflor]
mortality at 0.16 g/ha [3, 11]: 0%
mortality at 0.16 g/ha (Myzus persicae [2]; [10]): 0%
mortality at 4 g/ha [1, 7]: 0%

CCc1nn(C)c(C(=O)NCc2ccc(C(C)(C)C)cc2)c1Cl [Tebufenpyrad]
mortality at 4 g/ha [3, 13]: 0%

N#C/N=C1\SCCN1Cc1ccc(Cl)nc1 [Thiacloprid]
mortality at 20 g/ha (Spodoptera frugiperda; Spodoptera frugiperda, read-out: Mortality in % after 6^d): 0%
mortality at 20 g/ha [1, 7]: 33%

CN1COCN(Cc2cnc(Cl)s2)/C1=N\[N+](=O)[O-] [Thiamethoxam]
mortality at 20 g/ha [1, 8]: 67%

CS/C(C)=N\OC(=O)N(C)SN(C)C(=O)O/N=C(\C)SC [Thiodicarb]
mortality at 4 g/ha [3, 13]: 0%
mortality at 100 g/ha [1, 7]: 0%

Cc1ccc(C(C)C)c(O)c1 [Thymol]
mortality at 500 g/ha ([3]; Tetranychus urticae, foliar, read-out: Mortality in % after 6^d): 0%

O=C(NC(=O)c1ccccc1Cl)Nc1ccc(OC(F)(F)F)cc1 [Triflumuron]
mortality at 20 g/ha (Spodoptera frugiperda; [12]): 0%
mortality at 20 g/ha [1, 7]: 0%

Abamectin
Mortality in % after 2^d ([3]; 0.032 g ai/ha): 0%

Emamectin benzoate [Emamectin-benzoate]
Mortality in % after 2^d ([4]; 0.8 g ai/ha): 67%

Lepimectin
Mortality in % after 2^d ([4]; 4 g ai/ha): 50%

Milbemectin
Mortality in % after 6^d (Spodoptera frugiperda; 0.8 g ai/ha): 0%
Mortality in % after 6^d (Myzus persicae [5]; 4 g ai/ha): 70%

Spinetoram
Mortality in % after 2^d ([3]; 0.8 g ai/ha): 0%

Spinosad
Mortality in % after 2^d ([3]; 0.8 g ai/ha): 0%

— patent publication US20150189882A1, “ACTIVE INGREDIENT COMBINATIONS HAVING INSECTICIDAL AND ACARICIDAL PROPERTIES” (priority 2011, published 2015)
